In patent publication US20240325544A1, “CATIONIC LIPID FOR COVALENT MODIFICATION OF PEPTIDES” (PharmalN Corporation, priority 2023, published 2024):
Bridge positions count the residues as written; N and C are the ends. Square brackets hold non-standard residues; d marks the D form. Peptide text beside a SMILES is read from it. * marks the point of attachment. Palmitoyl = CCCCCCCCCCCCCCCC(=O)*; Dap = NC[C@H](N)C(=O)O; AEEA = NCCOCCOCC(=O)O

Columns and labels:
C57BL/6J mice = test: Acute exacerbation of idiopathic pulmonary fibrosis (IPF-AE) model, bleomycin + LPS (FIG. 5); type: in vivo; conditions: Bleo 1.0 mg/kg IT, LPS 0.025 mg/kg IT; 0.3 mg/kg SC day before, of and after LPS
Protocol: FIGS. 5A-5E: The effect of cationic alkyl modified CNP derivatives in inflammation status of acute exacerbation of idiopathic pulmonary fibrosis (IPF-AE). Error bars indicate standard error of the mean. Increased inflammatory status in lung, especially increase of neutrophils, MCP1, IL-6, are seen in IPF-AE. Its decrease indicates resolution of IPF-AE. […] After 3 weeks, mice were treated with LPS (0.025 mg/kg IT) and treated SC with SEQ ID NO: 29 or 31 at 0.3 mg/kg (0.1 μmol/kg) the day before, of, and after LPS treatment as shown in the diagram. Additionally, a normal control (NC) group without LPS/Bleo treatment, a Bleo group without LPS treatment, and a Control group without test article treatment were also included. […]
Animal care and treatment: Male C57BL/6J mice (6 weeks-old) were purchased from Kyudo (Saga, Japan) and maintained under a 12-hour light/12-hour dark cycle with free access to water and standard mouse diet (MF diet, Oriental Yeast Co., Ltd. Tokyo, Japan). […] Lung weight/body weight ratio increase is a commonly measured parameter that indicates lung damage. […] The expression of MPO was assessed by Image J (NIH, Bethesda, MD, USA). […] Macrophage chemoattractant protein-1 (MCP1) was measured by using ELISA kit (R&D SYSTEMS, Minneapolis M N). […] The gene expression levels of IL-6 were measured with qRT-PCR-analysis by using cDNA synthesis kit (Qiagen; Venlo, the Netherlands). […]

[1] = test system: E0771 breast cancer cells; test: Orthotopic E0771 breast cancer model, monotherapy or with anti-PD1 Ab (FIG. 9); type: in vivo, mice
Protocol: FIG. 9. […] Error bars represent standard error of the mean. Tumor growth kinetics of 6-week-old female C57BL/6J mice (n=7-8 per group) that were orthotopically inoculated with E0771 breast cancer cells (250,000 cells/mouse) in the mammary gland. Starting from Day 4 post-inoculation, anti-PD1 Ab (aPD1) was administered intraperitoneally at 5 mg/kg twice a week for 2 cycles; SEQ ID NO: 31 was administered subcutaneously at a bolus dose of 0.3 mg/kg once daily for 5 days (5 days on, 2 days off) for 3 cycles; or a combination of aPD1 (5 mg/kg IP twice a week; 2 cycles) and SEQ ID NO: 31 (0.3 mg/kg SC once a day for 5 days on and 2 days off; 3 cycles); SEQ ID NO: 31 dose days indicated by dotted line or gridlines. The control group, which received only buffer, was dosed in the same manner as SEQ ID NO: 31 to establish the baseline tumor growth kinetics. […] Statistical analysis was based on Dunnett's test performed by using GraphPad (n=8, 7, 8, and 7; Control, aPD1, SEQ ID NO: 31, Combo (aPD1 and SEQ ID NO: 31) * P<0.05, **** P<0.0001 vs Control group.
Animal care and treatment: Female C57BL/6J mice (6 weeks-old) were purchased from Kyudo (Saga, Japan) and maintained under a 12-hour light/12-hour dark cycle with free access to water and standard mouse diet (CRF diet; Oriental Yeast Co., Ltd, Tokyo Japan). […] Tumor sizes were measured using calipers.

**Q.** For `CCCCCCCCCCCCCCCC(=O)NCCOCCOCC(=O)NCCOCCOCC(=O)NCCOCCOCC(=O)N[C@@H](CN)C(=O)N[C@@H](CN)C(=O)NCC(=O)N[C@@H](CC(C)C)C(=O)N[C@@H](CO)C(=O)N[C@@H](CCCCN)C(=O)NCC(=O)N[C@H]1CSSC[C@@H](C(=O)O)NC(=O)CNC(=O)[C@H](CC(C)C)NC(=O)CNC(=O)[C@H](CO)NC(=O)[C@H](CCC(N)=O)NC(=O)[C@H](CO)NC(=O)CNC(=O)[C@H]([C@@H](C)CC)NC(=O)[C@H](CCCNC(=N)N)NC(=O)[C@H](CC(=O)O)NC(=O)[C@H](CC(C)C)NC(=O)[C@H](CCCCN)NC(=O)[C@H](CC(C)C)NC(=O)CNC(=O)[C@H](Cc2ccccc2)NC1=O` [SEQ ID NO: 31] ({Palmitoyl-AEEA-AEEA-AEEA}-[Dap][Dap]GLSKGCFGLKLDRIGSQSGLGC-OH; disulfide 8-24; C-terminus assumed), which MCP1 in lung (C57BL/6J mice) is on record?
**A.** significant decrease of MCP1

**Q.** And the “Tumor volume compared to Control group and aPD1 group” value ([1]; combination with aPD1 5 mg/kg IP twice a week, 2 cycles)?
**A.** significant decrease in tumor volume

**Q.** And the “Tumor volume compared to Control group and aPD1 group” value ([1]; monotherapy, 0.3 mg/kg SC, 5 days on, 2 days off, 3 cycles)?
**A.** significant decrease in tumor volume
